This note sets out measurements from PMC8427794 (ACS Omega, 2021).

Series [1] concerns the target T1, mGlu2 receptor (Homo sapiens, UniProt Q14416). The experiment in a line: [35S]GTPγS binding assay, agonist mode. Format: biochemical. As to conditions: for Emax: read-out: mGlu2 Ago EMAX ±SD.
A short description of series [2]: Human liver microsomal stability. Format: in vitro ADME. The following applies: incubation with microsomes for 15 min at 5 μM.
The nature of series [3]: Brain and plasma kinetics in rat after a single dose. Format: in vivo, male Sprague Dawley rat.
A short description of series [4]: Rat liver microsomal stability. The following applies: incubation with microsomes for 15 min at 5 μM. Format: in vitro ADME.
Series [5] addresses T1, mGlu2 receptor. The series can be described thus: [35S]GTPγS binding assay, PAM mode. Format: biochemical.
A further series deals with mGlu1 (Homo sapiens, UniProt Q13255). The series can be described thus: Selectivity panel, mGlu1 Ca2+ assay. Format: cell-based.
The target in the next series is mGlu8 (Homo sapiens, UniProt O00222). The experiment in a line: Selectivity panel, mGlu8 Ca2+ assay. Format: cell-based.
The target of another series is mGlu4 (Homo sapiens, UniProt Q14833). The series can be described thus: Selectivity panel, mGlu4 assay. Format: cell-based.
The next series deals with mGlu6 (Rattus norvegicus, UniProt P35349). The series can be described thus: Selectivity panel, mGlu6 [35S]GTPγS binding. Format: biochemical.
A further series concerns the target mGlu5 (Homo sapiens, UniProt P41594). The series can be described thus: Selectivity panel, mGlu5 Ca2+ assay. Format: cell-based.
The next series concerns the target mGlu3 (Homo sapiens, UniProt Q14832). The experiment in a line: Selectivity panel, mGlu3 Ca2+ assay. Format: cell-based.
In a further series the target is mGlu7 (Homo sapiens, UniProt Q14831). The series can be described thus: Selectivity panel, mGlu7 Ca2+ assay. Format: cell-based.
[6] abbreviates: male, Sprague Dawley, brain, sc, 10 mg/kg.
Setting [7] is: male, Sprague Dawley, brain/plasma, sc, 10 mg/kg.
[8] abbreviates: male, Sprague Dawley, plasma, sc, 10 mg/kg, pH 3.
Where [9] appears, read: male, Sprague Dawley, brain, po, 10 mg/kg.
The mark [10] stands for this setting: male, Sprague Dawley, plasma, po, 10 mg/kg.
Setting [11] is: male, Sprague Dawley, plasma, sc, 10 mg/kg.

Where two headings read alike, the source gives them in different places.

T1 sequence (Q14416 19-872): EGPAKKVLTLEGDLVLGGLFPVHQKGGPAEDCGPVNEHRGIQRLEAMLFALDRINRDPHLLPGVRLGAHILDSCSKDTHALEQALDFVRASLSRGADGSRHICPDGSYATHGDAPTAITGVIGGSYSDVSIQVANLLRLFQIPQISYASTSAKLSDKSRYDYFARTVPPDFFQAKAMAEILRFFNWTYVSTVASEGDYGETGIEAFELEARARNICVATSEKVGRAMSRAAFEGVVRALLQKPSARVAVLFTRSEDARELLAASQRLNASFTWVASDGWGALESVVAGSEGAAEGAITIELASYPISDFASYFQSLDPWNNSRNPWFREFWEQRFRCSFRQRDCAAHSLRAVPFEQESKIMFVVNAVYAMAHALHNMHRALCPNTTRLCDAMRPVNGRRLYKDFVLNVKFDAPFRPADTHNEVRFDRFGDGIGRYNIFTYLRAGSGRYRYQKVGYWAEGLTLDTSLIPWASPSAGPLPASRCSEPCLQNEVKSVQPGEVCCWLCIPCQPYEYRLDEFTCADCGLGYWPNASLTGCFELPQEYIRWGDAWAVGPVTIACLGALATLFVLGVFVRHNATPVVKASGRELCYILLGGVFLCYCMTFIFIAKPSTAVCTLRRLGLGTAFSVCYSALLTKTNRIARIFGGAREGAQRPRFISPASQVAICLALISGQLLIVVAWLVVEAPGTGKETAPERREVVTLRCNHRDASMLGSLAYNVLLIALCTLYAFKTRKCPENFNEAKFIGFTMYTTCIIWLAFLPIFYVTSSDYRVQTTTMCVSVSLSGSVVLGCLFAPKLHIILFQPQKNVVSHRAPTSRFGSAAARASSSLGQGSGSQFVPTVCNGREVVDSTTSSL
mGlu4, sequence (Q14833 33-912): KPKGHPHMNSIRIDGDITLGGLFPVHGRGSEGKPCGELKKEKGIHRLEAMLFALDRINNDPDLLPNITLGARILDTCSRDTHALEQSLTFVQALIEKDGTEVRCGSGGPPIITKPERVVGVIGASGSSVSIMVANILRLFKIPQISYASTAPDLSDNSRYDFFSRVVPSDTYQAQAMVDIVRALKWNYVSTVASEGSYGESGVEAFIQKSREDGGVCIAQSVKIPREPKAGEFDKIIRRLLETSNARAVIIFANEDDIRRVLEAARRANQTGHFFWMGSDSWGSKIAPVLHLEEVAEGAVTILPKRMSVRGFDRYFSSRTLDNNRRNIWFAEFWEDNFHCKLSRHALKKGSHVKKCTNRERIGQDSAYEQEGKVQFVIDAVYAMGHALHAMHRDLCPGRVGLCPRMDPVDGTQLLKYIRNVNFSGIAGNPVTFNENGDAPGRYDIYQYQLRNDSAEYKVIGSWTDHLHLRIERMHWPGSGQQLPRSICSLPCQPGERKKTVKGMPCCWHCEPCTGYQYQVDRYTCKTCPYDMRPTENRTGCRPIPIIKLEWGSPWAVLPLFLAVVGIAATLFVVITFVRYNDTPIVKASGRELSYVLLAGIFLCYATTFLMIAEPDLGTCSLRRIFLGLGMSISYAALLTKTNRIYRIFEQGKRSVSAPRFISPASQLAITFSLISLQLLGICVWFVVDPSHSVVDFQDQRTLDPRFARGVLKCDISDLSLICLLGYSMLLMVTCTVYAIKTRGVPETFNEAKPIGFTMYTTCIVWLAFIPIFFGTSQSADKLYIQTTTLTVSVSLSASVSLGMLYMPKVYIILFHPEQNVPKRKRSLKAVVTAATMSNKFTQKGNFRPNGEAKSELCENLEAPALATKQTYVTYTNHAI
mGlu8, sequence (O00222 34-908): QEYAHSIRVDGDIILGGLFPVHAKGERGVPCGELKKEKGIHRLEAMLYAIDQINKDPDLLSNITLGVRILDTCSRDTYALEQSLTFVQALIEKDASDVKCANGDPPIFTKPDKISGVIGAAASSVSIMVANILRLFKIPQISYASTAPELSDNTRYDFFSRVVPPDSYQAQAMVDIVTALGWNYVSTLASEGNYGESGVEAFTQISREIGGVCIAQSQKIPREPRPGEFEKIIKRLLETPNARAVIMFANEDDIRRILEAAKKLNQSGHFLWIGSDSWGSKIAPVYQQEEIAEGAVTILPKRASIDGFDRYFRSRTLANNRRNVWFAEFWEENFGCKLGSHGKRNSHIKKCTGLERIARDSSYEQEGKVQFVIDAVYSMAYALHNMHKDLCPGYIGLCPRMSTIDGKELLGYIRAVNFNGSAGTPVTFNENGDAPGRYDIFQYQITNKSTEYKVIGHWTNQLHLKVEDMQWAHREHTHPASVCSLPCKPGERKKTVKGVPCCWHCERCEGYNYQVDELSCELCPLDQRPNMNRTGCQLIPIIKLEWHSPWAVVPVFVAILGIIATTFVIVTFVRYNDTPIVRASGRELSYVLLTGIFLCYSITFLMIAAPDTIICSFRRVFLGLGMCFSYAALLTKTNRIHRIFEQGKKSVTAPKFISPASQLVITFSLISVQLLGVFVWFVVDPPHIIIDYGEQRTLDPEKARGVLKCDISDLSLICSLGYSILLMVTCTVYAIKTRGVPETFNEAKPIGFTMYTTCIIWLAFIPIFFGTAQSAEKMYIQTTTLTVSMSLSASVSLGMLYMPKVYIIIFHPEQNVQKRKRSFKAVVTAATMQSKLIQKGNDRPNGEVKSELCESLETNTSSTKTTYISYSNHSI
mGlu3, sequence (Q14832 23-879): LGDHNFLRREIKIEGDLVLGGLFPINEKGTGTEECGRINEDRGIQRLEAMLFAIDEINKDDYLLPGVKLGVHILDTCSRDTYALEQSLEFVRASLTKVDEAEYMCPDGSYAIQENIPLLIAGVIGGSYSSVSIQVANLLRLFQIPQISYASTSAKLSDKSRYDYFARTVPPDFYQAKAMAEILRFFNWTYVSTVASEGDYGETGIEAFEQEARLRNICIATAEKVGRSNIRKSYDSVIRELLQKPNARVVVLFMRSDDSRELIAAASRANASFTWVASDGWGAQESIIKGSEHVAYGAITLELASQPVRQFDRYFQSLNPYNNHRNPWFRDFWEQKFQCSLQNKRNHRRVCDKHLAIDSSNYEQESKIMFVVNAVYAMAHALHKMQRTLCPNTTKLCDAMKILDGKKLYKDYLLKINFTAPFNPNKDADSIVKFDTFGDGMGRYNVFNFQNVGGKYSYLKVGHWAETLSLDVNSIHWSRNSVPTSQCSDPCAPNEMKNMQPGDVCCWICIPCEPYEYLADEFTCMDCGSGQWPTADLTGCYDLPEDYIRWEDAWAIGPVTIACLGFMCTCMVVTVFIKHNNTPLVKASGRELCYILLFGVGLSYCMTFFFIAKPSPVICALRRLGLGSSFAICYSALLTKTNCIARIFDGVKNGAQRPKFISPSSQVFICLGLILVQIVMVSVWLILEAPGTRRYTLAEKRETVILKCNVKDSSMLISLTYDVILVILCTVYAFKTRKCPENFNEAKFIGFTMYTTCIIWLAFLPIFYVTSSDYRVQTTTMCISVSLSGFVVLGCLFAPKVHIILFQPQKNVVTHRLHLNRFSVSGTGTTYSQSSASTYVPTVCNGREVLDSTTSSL
mGlu7, sequence (Q14831 35-915): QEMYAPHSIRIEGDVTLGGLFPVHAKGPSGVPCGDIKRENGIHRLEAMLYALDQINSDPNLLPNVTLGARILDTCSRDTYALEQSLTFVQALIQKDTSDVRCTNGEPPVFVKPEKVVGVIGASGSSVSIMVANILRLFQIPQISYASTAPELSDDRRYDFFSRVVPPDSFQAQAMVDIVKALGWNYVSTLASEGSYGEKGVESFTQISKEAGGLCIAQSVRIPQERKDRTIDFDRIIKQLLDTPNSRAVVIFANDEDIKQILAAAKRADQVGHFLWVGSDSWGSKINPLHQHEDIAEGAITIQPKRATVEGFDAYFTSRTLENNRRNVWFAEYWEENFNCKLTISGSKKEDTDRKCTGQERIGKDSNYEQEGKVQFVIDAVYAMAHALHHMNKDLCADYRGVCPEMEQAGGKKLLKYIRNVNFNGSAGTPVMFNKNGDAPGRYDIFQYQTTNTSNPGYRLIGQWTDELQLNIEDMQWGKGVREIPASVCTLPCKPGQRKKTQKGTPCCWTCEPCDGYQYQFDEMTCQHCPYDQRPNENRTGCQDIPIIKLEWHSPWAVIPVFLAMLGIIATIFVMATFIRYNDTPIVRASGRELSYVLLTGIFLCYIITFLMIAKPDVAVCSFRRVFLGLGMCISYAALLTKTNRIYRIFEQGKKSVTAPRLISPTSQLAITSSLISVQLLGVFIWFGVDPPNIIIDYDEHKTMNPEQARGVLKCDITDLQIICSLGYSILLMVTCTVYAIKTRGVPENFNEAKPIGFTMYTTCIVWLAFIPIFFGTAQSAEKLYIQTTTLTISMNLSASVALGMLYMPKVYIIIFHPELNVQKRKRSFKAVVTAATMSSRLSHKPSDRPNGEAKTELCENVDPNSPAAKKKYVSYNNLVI

On to `CCCCn1ccn2c(-c3ccc(Oc4ccc(C)nc4C)c(F)c3)c(C)nc2c1=O` [Compound 3c], for which the 50% effective concentration (EC50) at mGlu2 receptor [1] stood at 1.82 µM. Besides, the Emax at mGlu2 receptor [1] came to 54%. In addition, in series [2], the “HLM (%), percentage of compound metabolized” value (“HLM (%), percentage” for short) is on record as 24%. The results for the concentration at 1 h in [3] (setting [6]) and in series [3] (setting [8]) were 446 ng/g and 1820 ng/mL, respectively. The molecule further returned a Kp at 1 h in [3] (setting [7]) of 0.2. Also, the “RLM (%), percentage of compound metabolized” value (“RLM (%), percentage” below) in series [4] was found to be 56%.
Consider `CCCCn1ccn2c(CN3CCC(c4ccccc4)CC3)c(C)nc2c1=O` [Compound 3a], for which the “HLM (%), percentage” value in series [2] was found to be 20%. Besides, the “RLM (%), percentage” value in [4] is on record as 58%.
For `CCCCn1ncn2c(-c3ccc(OCC4CC4)c(Cl)c3)cnc2c1=O` [Compound 4c, 7-Butyl-3-[3-chloro-4-(cyclopropylmethoxy)phenyl]imidazo[1,2-d][1,2,4]triazin-8-one] the same measures were 4% and 21%.
Consider `CCCCn1ccn2c(-c3ccc(OCC4CC4)c(Cl)c3)nc(C)c2c1=O` [Compound 4e, 7-Butyl-3-[3-chloro-4-(cyclopropylmethoxy)phenyl]-1-methyl-imidazo[1,5-a]pyrazin-8-one], for which, on mGlu2 receptor [1], the EC50 is greater than 50.1 µM and the Emax stood at 12%. Besides, in [2], the “HLM (%), percentage” value is 31%. The “RLM (%), percentage” value in series [4] is 74%. For the same molecule, at mGlu2 receptor [5], the “fold decrease in mGlu2 PAM potency vs 3e” value is roughly 10 fold.
`CCCCn1cnn2c(-c3ccc(OCC4CC4)c(Cl)c3)cnc2c1=O` [Compound 4b, 3-Butyl-7-[3-chloro-4-(cyclopropylmethoxy)phenyl]imidazo[2,1-f][1,2,4]triazin-4-one]: in series [2], the “HLM (%), percentage” value is reported as 1%. The “RLM (%), percentage” value in series [4] is listed as 25%.
On to `CCCCn1ccn2c(-c3ccc4c(ccn4-c4cccnc4)c3)c(C)nc2c1=O` [Compound 3i], for which, at mGlu2 receptor [1], the midpoint of the response, the EC50, lay at 0.229 µM and the Emax is 44%. In addition, the “HLM (%), percentage” value in series [2] is 35%. Besides, the “RLM (%), percentage” value in [4] turned out to be 47%.
Take `CCCCn1ccn2c(-c3ccc(N4CCNCC4)c(Cl)c3)c(C)nc2c1=O` [Compound 3g]: on mGlu2 receptor [1], the EC50 is 0.989 µM and the Emax was 36 ± 4%. In series [2], the “HLM (%), percentage” value worked out at 0%. Further, in [4], the “RLM (%), percentage” value is listed as 17%.
Take `CCCCn1ccn2c(-c3ccc(Oc4ccccc4)cc3)c(C)nc2c1=O` [Compound 3j]: at mGlu2 receptor [1], it took 0.151 µM to reach a half-maximal effect (EC50) and the Emax worked out at 48 ± 2%. Also, in series [2], the “HLM (%), percentage” value amounted to 2%. Further, the “brain level 4 h” value in series [3] (10 mg/kg p.o., 4 h) is on record as “BQL ^d”. For the same molecule, in series [3] (setting [9]), the concentration at 1 h came out at 104 ng/g and the concentration at 2 h was determined as 92 ng/g. Further, the Kp at 2 h in [3] (male, Sprague Dawley, brain/plasma, po, 10 mg/kg) amounted to 0.5. In series [3] (setting [10]), this molecule gave a concentration at 1 h of 263 ng/mL, a concentration at 2 h of 192 ng/mL and a concentration at 4 h of 14 ng/mL. For the same molecule, the “RLM (%), percentage” value in series [4] came to 86%.
As for `CCCCn1ccn2c(-c3ccc(OCC4CC4)c(Cl)c3)c(C)nc2c1=O` [Compound 3e], the “HLM (%), percentage” value in series [2] is 20%. Further, the concentration at 1 h was found to be 2540 ng/g in series [3] (setting [6]) and 1420 ng/mL in [3] (setting [8]). Moreover, the concentration at 2 h in [3] (setting [6]) is 2860 ng/g; in [3] (setting [11]), 1390 ng/mL. In addition, the results for the concentration at 4 h in [3] (setting [6]) and in [3] (setting [11]) were 835 ng/g and 526 ng/mL, respectively. Moreover, the EC50 was greater than 30 µM at mGlu1; greater than 25 µM on mGlu8; greater than 25 µM at mGlu8 (read-out: mGlu8 agonism EC50, Ca2+ read-out); greater than 25 µM at mGlu4; greater than 30 µM on mGlu6; greater than 30 µM on mGlu5. The half-maximal effective concentration (EC50) at mGlu5 (read-out: mGlu5 agonism EC50, Ca2+ read-out) is greater than 30 µM; on mGlu3 (mGlu3 PAM EC50, Ca2+ read-out) it was 14.3 µM; at mGlu3 (mGlu3 agonism EC50, Ca2+ read-out), greater than 30 µM; on mGlu7, greater than 25 µM; on mGlu7 (read-out: mGlu7 agonism EC50, Ca2+ read-out), greater than 25 µM. Further, the 50% inhibitory concentration (IC50) against mGlu1 is greater than 30 µM; on mGlu8, greater than 25 µM; against mGlu4, 17 µM; at mGlu6, 26.5 µM; against mGlu5, greater than 30 µM; against mGlu3 it was greater than 30 µM. In addition, on mGlu7, it took 8.32 µM to reach half-maximal inhibition (IC50). The Emax is 4% on mGlu1 (read-out: mGlu1 agonism Emax); 18% at mGlu1 (read-out: mGlu1 antagonism Emax); -4% at mGlu8 (read-out: mGlu8 agonism Emax); 16% on mGlu8 (read-out: mGlu8 antagonism Emax); 5% at mGlu4 (read-out: mGlu4 agonism Emax); 100% at mGlu4 (read-out: mGlu4 antagonism Emax). In addition, the Emax at mGlu6 (read-out: mGlu6 agonism Emax) stood at 1%; at mGlu6 (read-out: mGlu6 antagonism Emax) it was 53%; at mGlu5 (read-out: mGlu5 PAM Emax) it was 0%; on mGlu5 (read-out: mGlu5 agonism Emax), 0%; on mGlu5 (read-out: mGlu5 antagonism Emax), 7%; on mGlu3 (read-out: mGlu3 PAM Emax), 63%. Further, the Emax on mGlu3 (read-out: mGlu3 agonism Emax) stood at 2%; at mGlu3 (read-out: mGlu3 antagonism Emax) it was 15%; at mGlu7 (read-out: mGlu7 PAM Emax), 5%; on mGlu7 (read-out: mGlu7 agonism Emax), 1%; on mGlu7 (read-out: mGlu7 antagonism Emax), 27%. In series [4], the “RLM (%), percentage” value amounted to 49%.
As for `CCCCn1cnc2c(-c3ccc(OCC4CC4)c(Cl)c3)c(C)nn2c1=O` [Compound 4d, 3-Butyl-8-[3-chloro-4-(cyclopropylmethoxy)phenyl]-7-methyl-pyrazolo[1,5-a][1,3,5]triazin-4-one], in [2], the “HLM (%), percentage” value is 0%. In addition, the “RLM (%), percentage” value in series [4] was determined as 60%.
Turning to `CCCCn1ccn2c(-c3ccc(NCc4ccc(OC)nc4)cc3)c(C)nc2c1=O` [Compound 3d], at mGlu2 receptor [1], the EC50 turned out to be 0.571 µM and the Emax was 47 ± 1%. Moreover, in [2], the “HLM (%), percentage” value amounted to 59%. This molecule also showed a partition ratio (Kp) at […] in [3] (setting [7]) of 0.3. Also, the “RLM (%), percentage” value in [4] came to 36%.
Regarding `CCCCn1ccn2c(-c3ccc(OCC4CC4)c(Cl)c3)nnc2c1=O` [Compound 4a, 7-Butyl-3-[3-chloro-4-(cyclopropylmethoxy)phenyl]-[1,2,4]triazolo[4,3-a]pyrazin-8-one], the “HLM (%), percentage” value in series [2] is 2%. In addition, in series [4], the “RLM (%), percentage” value is reported as 45%.
